From paper PMC12369021, “Biased Signaling and Its Role in the Genesis of Short- and Long-Acting β2‑Adrenoceptor Agonists” (Biochemistry, 2025)
Where two headings read alike, the source gives them in different places.

Legend:
[1] = biological target: T1, β2AR (Homo sapiens, UniProt P07550); experiment: nanoBRET mGs protein recruitment assay in T-REx-293-β2AR-nLuc cells; assay type: cell-based; details: for EC50: mean ± SEM
Target sequence in this assay (P07550 whole entry): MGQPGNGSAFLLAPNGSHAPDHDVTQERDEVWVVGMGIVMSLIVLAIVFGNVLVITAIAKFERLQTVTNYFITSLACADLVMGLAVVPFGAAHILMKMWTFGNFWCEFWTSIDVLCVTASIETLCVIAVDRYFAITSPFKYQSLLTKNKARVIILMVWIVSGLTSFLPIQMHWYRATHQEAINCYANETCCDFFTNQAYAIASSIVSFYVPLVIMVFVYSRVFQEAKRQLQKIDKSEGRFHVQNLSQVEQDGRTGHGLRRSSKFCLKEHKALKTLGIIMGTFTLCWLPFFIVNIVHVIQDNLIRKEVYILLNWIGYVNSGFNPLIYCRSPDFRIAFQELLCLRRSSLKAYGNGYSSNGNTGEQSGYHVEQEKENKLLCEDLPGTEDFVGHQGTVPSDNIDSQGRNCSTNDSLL

[2] = biological target: T1, β2AR; experiment: nanoBRET β-arrestin2 recruitment assay in T-REx-293-β2AR-nLuc cells; assay type: cell-based; details: for EC50: mean ± SEM
Target sequence in this assay (P07550 whole entry): as above
Target sequence in this assay (P32121 whole entry partner): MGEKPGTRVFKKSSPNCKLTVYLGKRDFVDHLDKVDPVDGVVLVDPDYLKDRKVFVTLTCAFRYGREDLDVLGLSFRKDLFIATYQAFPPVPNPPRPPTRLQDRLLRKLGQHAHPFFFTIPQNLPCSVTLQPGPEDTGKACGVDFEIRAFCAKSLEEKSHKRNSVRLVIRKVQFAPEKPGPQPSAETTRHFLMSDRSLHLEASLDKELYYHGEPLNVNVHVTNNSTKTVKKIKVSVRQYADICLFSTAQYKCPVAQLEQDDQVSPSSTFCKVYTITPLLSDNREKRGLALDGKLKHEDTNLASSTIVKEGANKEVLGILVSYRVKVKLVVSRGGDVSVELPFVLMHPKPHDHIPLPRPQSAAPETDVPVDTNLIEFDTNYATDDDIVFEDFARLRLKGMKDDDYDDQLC

[3] = test system: β2AR; details: for log bias factor (mGs/Arr2): ΔΔlog(Emax/EC50) relative to reference formoterol, from peak responses
Description: To determine the relative effectiveness of the compounds to activate the different signaling pathways, the difference between the log(E max/EC50) values was calculated.
Using the estimates of agonist activity Δlog(E max/EC50) for the test and reference agonists, pathway log bias was calculated as follows: 3 ΔΔlog(Emax/EC50)=Δlog(Emax/EC50)P1−Δlog(Emax/EC50)P2 where pathway 1 (P1) is mGs-dependent recruitment and pathway 2 (P2) is β-arrestin2 recruitment. Bias factors were calculated by taking the antilog of the ΔΔlog(E max/EC50).
Error on the pathway bias was calculated using the following formula: 4 SEMΔΔlog(Emax/EC50)=SEMΔlog(Emax/EC50)P12+SEMΔlog(Emax/EC50)P22

[4] = biological target: β2AR; details: cited from earlier work
[5] = read-out: mGs Emax at room temperature
[6] = read-out: mGs Emax derived from AUC analysis
[7] = read-out: β-arrestin2 Emax at room temperature
[8] = read-out: β-arrestin2 Emax derived from AUC analysis
[9] = ΔΔlog(Emax/EC50) relative to formoterol, AUC-derived

Row | SMILES | Emax ([1]; read-out: mGs E max) [%] | Emax [1, 5] [%] | Emax [1, 6] [%] | Emax [2, 7] [%] | Log Bias Factor (mGs/Arr2) from AUC analysis [3, 9] | log bias factor (mGs/Arr2) [3] | also measured
1 | CC(Cc1ccc(O)cc1)NCC(O)c1cc(O)cc(O)c1 (stereo not shown) [Fenoterol, fenoterol] | 77 ± 0.4 | 73.9 ± 2.1 | 76.7 ± 0.8 | 83.8 ± 7.1 | 0.37 ± 0.05 | 0.32 ± 0.11 | Emax ([2]; read-out: β-arrestin2 E max): 85 ± 2.5%; Emax [2, 8]: 93.6 ± 8.1%
2 | OCc1cc(C(O)CNCCCCCCOCCCCc2ccccc2)ccc1O (stereo not shown) [Salmeterol] |  |  |  |  |  | 0.53 ± 0.15 | 
3 | COc1ccc(CC(C)NCC(O)c2ccc(O)c(NC=O)c2)cc1 (stereo not shown) [Formoterol] |  |  |  |  |  | 0 ± 0.10 | 
4 | C=CCc1ccccc1OCC(O)CNC(C)C (stereo not shown) [Alprenolol] |  |  |  |  |  |  | Ki [4]: 0.912 nM
5 | CC(C)(C)NCC(O)c1ccc(O)c(CO)c1 (stereo not shown) [Salbutamol] |  |  |  |  | 1.65 ± 0.06 | 1.42 ± 0.19 | 
6 | CC(C)NCC(O)c1ccc(O)c(O)c1 (stereo not shown) [Isoprenaline, isoprenaline] |  |  |  |  |  | 0.48 ± 0.14 | Log Bias Factor (mGs/Arr2) from AUC analysis [3]: 0.51 ± 0.07
7 | CCC(NC(C)C)C(O)c1ccc(O)c(O)c1 (stereo not shown) [Isoetharine] | 97.8 ± 1.4 | 101 ± 2.8 | 93.9 ± 1.7 | 116 ± 1.7 | 0.79 ± 0.06 | 0.59 ± 0.13 | EC50 ([1]; AUC analysis, 37 °C, read-out: mGs pEC50 derived from AUC analysis (converted)): 38 nM; EC50 ([1]; peak response at 30 min, 37 °C, read-out: mGs pEC50 (converted)): 61.7 nM; EC50 ([1]; room temperature, 3 observations, read-out: mGs pEC50 at room temperature (converted)): 13.5 nM; EC50 ([2]; AUC analysis, 37 °C, read-out: β-arrestin2 pEC50 derived from AUC analysis (converted)): 224 nM; EC50 ([2]; peak response, 37 °C, read-out: β-arrestin2 pEC50 (converted)): 417 nM; Emax ([2]; read-out: β-arrestin2 E max): 112 ± 5.9%; Emax [2, 8]: 103 ± 4.37%; EC50 ([2]; room temperature, 3 observations, read-out: β-arrestin2 pEC50 at room temperature (converted)): 209 nM; Ki [4]: 1580 nM
8 | CC(C)(C)NCC(O)c1ccccc1Cl (stereo not shown) [Tulobuterol] | 33.6 ± 0.6 | 41.9 ± 1.4 | 32.8 ± 0.4 | 8.8 ± 1 |  |  | 
